The source of these data is ChEMBL document CHEMBL1128838, “Synthesis of antiparasitic licorice chalcones” (1995).

Experiment [1] is described as follows: Evaluated for the PHA (phytohemagglutininin A) induced proliferation of human peripheral lymphocytes at a dose of 1 ug/ml. Type of experiment: functional.
Experiment [2] is described as follows: Evaluated for the PHA (phytohemagglutininin A) induced proliferation of human peripheral lymphocytes at a dose of 10 ug/ml. Type of experiment: functional.
A short description of experiment [3]: Evaluated for the PHA (phytohemagglutininin A) induced proliferation of human peripheral lymphocytes at a dose of 20 ug/ml. The format is functional.
Experiment [4] in a line: Evaluated for the PHA (phytohemagglutininin A) induced proliferation of human peripheral lymphocytes at a dose of 5 ug/ml. The format is functional.
The subject of experiment [5] is Leishmania major. The experiment can be described thus: Antiparasitic activity was estimated by ability to inhibit the in vitro growth of Leishmania major measured by the decreased uptake of [3H]thymidine at 1 ug/mL. The format is functional.
In experiment [6] the test system is Leishmania major. Briefly: Antiparasitic activity was estimated by ability to inhibit the in vitro growth of Leishmania major measured by the decreased uptake of [3H]thymidine at 10 ug/mL. Type of experiment: functional.
Experiment [7] deals with Leishmania major. Briefly: Antiparasitic activity was estimated by ability to inhibit the in vitro growth of Leishmania major measured by the decreased uptake of [3H]-thymidine at 20 ug/mL. The format is functional.
Experiment [8] has as its system Leishmania major. Briefly: Antiparasitic activity was estimated by ability to inhibit the in vitro growth of Leishmania major measured by the decreased uptake of [3H]thymidine at 5 ug/mL. The format is functional.
Experiment [9] in a line: Evaluated for the PHA (phytohemagglutininin A) induced proliferation of human peripheral lymphocytes at a dose of 100 ug/ml. Type of experiment: functional.
Experiment [10] is described as follows: Evaluated for the PHA (phytohemagglutininin A) induced proliferation of human peripheral lymphocytes at a dose of 25 ug/ml. Type of experiment: functional.
Experiment [11] can be described thus: Evaluated for the PHA (phytohemagglutininin A) induced proliferation of human peripheral lymphocytes at a dose of 50 ug/ml. The format is functional.
In experiment [12] the test system is Leishmania major. Briefly: Antiparasitic activity was estimated by ability to inhibit the in vitro growth of Leishmania major measured by the decreased uptake of [3H]thymidine at 100 ug/mL. The format is functional.
Experiment [13] concerns Leishmania major. The experiment can be described thus: Antiparasitic activity was estimated by ability to inhibit the in vitro growth of Leishmania major measured by the decreased uptake of [3H]thymidine at 25 ug/mL. The format is functional.
Experiment [14] has as its system Leishmania major. The experiment can be described thus: Antiparasitic activity was estimated by ability to inhibit the in vitro growth of Leishmania major measured by the decreased uptake of [3H]thymidine at 50 ug/mL. The format is functional.
Experiment [15] concerns Leishmania donovani. The experiment can be described thus: Inhibition of [3H]thymidine uptake in amastigotes of Leishmania donovani in infected human peripheral blood monocyte derived macrophages at a dose of 0.5 ug/ml. The format is functional.
The subject of experiment [16] is Leishmania donovani. Briefly: Inhibition of [3H]thymidine uptake in amastigotes of Leishmania donovani in infected human peripheral blood monocyte derived macrophages at a dose of 1 ug/ml. The format is functional.
Experiment [17] relates to Leishmania donovani. The experiment can be described thus: Inhibition of [3H]-thymidine uptake in amastigotes of Leishmania donovani in infected human peripheral blood monocyte derived macrophages at a dose of 10 ug/ml. Type of experiment: functional.
Experiment [18] relates to Leishmania donovani. Briefly: Inhibition of [3H]thymidine uptake in amastigotes of Leishmania donovani in infected human peripheral blood monocyte derived macrophages at a dose of 5 ug/ml. Type of experiment: functional.
Experiment [19] has as its system Leishmania major. Briefly: Compound was tested for its ability to inhibit the growth of Leishmania major at a dose of 10 ug/ml. Type of experiment: functional, organism-based.
Experiment [20] relates to Leishmania major. The experiment can be described thus: Compound was tested for its ability to inhibit the growth of Leishmania major at a dose of 100 ug/ml. Type of experiment: functional, organism-based.
Experiment [21] deals with Leishmania major. Briefly: Compound was tested for its ability to inhibit the growth of Leishmania major at a dose of 1 ug/ml. Type of experiment: functional, organism-based.

With `COc1c(/C=C/C(=O)c2ccc(O)cc2)ccc(O)c1CC=C(C)C`, the inhibition at 1 µg/mL in experiment [1] is 5.5%; with Leishmania major [5], 3.9%. The results for the inhibition at 10 µg/mL (in [2]; with Leishmania major [6]) were 30.4% and 51.5%, respectively. For the same molecule, the inhibition at 20 µg/mL in [3] was 73.2%; with Leishmania major [7] it was 93.8%. Further, the figures for the inhibition at 5 µg/mL (in [4]; with Leishmania major [8]) were 14.8% and 20.7%, respectively.
`COc1cc(O)ccc1/C=C/C(=O)c1ccc(O)cc1` [ECHINATIN]: the inhibition at 100 µg/mL was 26.4% in [9] and 86.8% in the experiment on Leishmania major [12]. In addition, the inhibition at 25 µg/mL in experiment [10] is 10.4%; with Leishmania major [13] it was 50.3%. The inhibition at 50 µg/mL in [11] was 18%; with Leishmania major [14], 69.3%. For the same molecule, the inhibition at 10 µg/mL in experiment [2] was 9.2%; with Leishmania major [6] it was 30%; in the experiment with Leishmania donovani [17], 94%. The results for the inhibition at 5 µg/mL (in experiment [4]; in the experiment on Leishmania major [8]; in the experiment with Leishmania donovani [18]) were 7.8%, 16.4% and 92%, respectively. Besides, the inhibition at 0.5 µg/mL in the experiment on Leishmania donovani [15] was found to be 57%. 1 µg/mL produced 62% inhibition in the experiment with Leishmania donovani [16].
Turning to `C=CC(C)(C)c1cc(/C=C/C(=O)c2ccc(O)cc2)c(OC)cc1O` [LICOAGROCHACONE A], the inhibition at 1 µg/mL in experiment [1] is 4.7%; with Leishmania major [5] it was 3.6%. The inhibition at 10 µg/mL is 39.7% in [2] and 91.9% in the experiment on Leishmania major [6]. The inhibition at 20 µg/mL in [3] was 65.3%; in the experiment with Leishmania major [7] it was 96%. In addition, the inhibition at 5 µg/mL in [4] was 20.8%; with Leishmania major [8], 63.9%.
Turning to Pentostam, the inhibition with Leishmania major [19] is 35%; in the experiment on Leishmania major [20] it was 95%; in the experiment on Leishmania major [21] it was 18%.
